From patent publication US20250084074A1, “SUBSTITUTED HETEROCYCLES AS HSET INHIBITORS” (MERCK PATENT GMBH, priority 2022, published 2025)

Biological target: HSET (Homo sapiens (Human), UniProt Q9BW19)
Experiment: not given
Conditions: literature (Watts et al., 2013; Zhang et al., 2016); read-out: HSET IC50 in biochemical assays; cited from earlier work

Sequence of HSET (Q9BW19 whole entry): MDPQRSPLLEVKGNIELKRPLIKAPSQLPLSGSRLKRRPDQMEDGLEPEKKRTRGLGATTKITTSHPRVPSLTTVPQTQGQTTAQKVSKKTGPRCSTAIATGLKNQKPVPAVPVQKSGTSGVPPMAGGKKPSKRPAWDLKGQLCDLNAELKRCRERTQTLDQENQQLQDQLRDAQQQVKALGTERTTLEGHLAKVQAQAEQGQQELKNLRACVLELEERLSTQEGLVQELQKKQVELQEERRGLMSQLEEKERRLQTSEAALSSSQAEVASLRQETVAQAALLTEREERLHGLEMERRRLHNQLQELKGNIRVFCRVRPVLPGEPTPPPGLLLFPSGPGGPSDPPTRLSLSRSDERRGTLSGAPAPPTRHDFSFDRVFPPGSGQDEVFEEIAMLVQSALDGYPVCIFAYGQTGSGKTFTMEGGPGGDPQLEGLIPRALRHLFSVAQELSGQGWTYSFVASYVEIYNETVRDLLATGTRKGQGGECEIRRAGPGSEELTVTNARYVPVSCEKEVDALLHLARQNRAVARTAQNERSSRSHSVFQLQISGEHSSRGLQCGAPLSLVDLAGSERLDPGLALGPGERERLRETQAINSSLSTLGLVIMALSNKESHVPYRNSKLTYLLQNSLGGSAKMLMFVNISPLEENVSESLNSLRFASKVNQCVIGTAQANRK

Compound	IC50 [nM]
COc1ccc(-c2nc(N)s[n+]2-c2ccccc2)cc1 [SR31527]	6600
O=C(O)c1cc(I)ccc1NC(=O)[C@H](Cc1ccccc1)NCc1ccccc1 [CW069]	75000

Biological target: HSET full length protein (Homo sapiens (Human), UniProt Q9BW19)
Sequence (Q9BW19 whole entry): as above
Experiment: HSET ADP-Glo Assay S - 3 μM ATP
Type: biochemical
Conditions: 5 nM HSET, 70 μg/mL microtubule, 80 min at rt, read-out: COMBINED HSET ADP GLO IC50
In short: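 ADP-Glo luminescence read-out: ATPase reaction at 3 μM ATP, 80 min at room temperature, after a 10 min compound preincubation. Enzyme was full-length human HSET at 5 nM, stimulated by 70 μg/mL paclitaxel-stabilised bovine microtubules in HEPES pH 6.8 buffer with MgCl2, EGTA, Triton X-100 and DTT.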

Compound	IC50 [nM]
CCCOC(=O)c1sc(C(=O)N[C@H]2C[C@@H](Nc3nccc4ccc(-c5noc(C)n5)cc34)C2)nc1C [Example 220, Propyl 4-methyl-2-(((1s,3s)-3-((7-(5-methyl-1,2,4-oxadiazol-3-yl)isoquinolin-1-yl)amino)cyclobutyl)carbamoyl)thiazole-5-carboxylate]	122
CCOC(=O)c1sc(NC(=O)CC(C)(C)NC(=O)c2cccc(-c3noc(C)n3)c2)nc1C [Example 65, Ethyl 4-methyl-2-(3-methyl-3-(3-(5-methyl-1,2,4-oxadiazol-3-yl)benzamido)butanamido)thiazole-5-carboxylate]	4100
CCOC(=O)c1sc(NC(=O)CCNC(=O)c2cc(/C=C/c3ccccc3)cc(C(=O)OC)c2)nc1C [Example 22, Ethyl 2-[3-[[3-methoxycarbonyl-5-[(E)-styryl]benzoyl]amino]-propanoylamino]-4-methyl-thiazole-5-carboxylate]	6350
Cc1nc(-c2ccc3ccnc(NCCC(=O)Nc4ncc(C(C)(C)C)s4)c3c2)no1 [Example 80, N-(5-(tert-butyl)thiazol-2-yl)-3-((7-(5-methyl-1,2,4-oxadiazol-3-yl)isoquinolin-1-yl)amino)propanamide]	201
CCOC(=O)c1sc(NC(=O)CCNC(=O)c2ccc3c(c2)CCCC3)nc1C [Example 5, Ethyl 4-methyl-2-(3-(5,6,7,8-tetrahydronaphthalene-2-carboxamido)propanamido)thiazole-5-carboxylate]	1660
Cc1noc(-c2sc(NC(=O)CCNC(=O)c3cccc(-c4noc(C)n4)c3)nc2C)n1 [Example 118, 3-(5-methyl-1,2,4-oxadiazol-3-yl)-N-(3-((4-methyl-5-(3-methyl-1,2,4-oxadiazol-5-yl)thiazol-2-yl)amino)-3-oxopropyl)benzamide]	8410
CCCOC(=O)n1cc(NC(=O)CCNc2nccc3ccc(-c4noc(C)n4)cc23)nc1C [Example 257, Propyl 2-methyl-4-(3-{[7-(5-methyl-1,2,4-oxadiazol-3-yl)isoquinolin-1-yl]amino}propanamido)-1 H-imidazole-1-carboxylate]	47
Cc1nc(NC(=O)[C@H]2C[C@@H](NC(=O)c3cccc(-c4ncon4)c3)C2)sc1C(=O)OC(C)(C)C [Example 105, tert-Butyl 2-((1s,3s)-3-(3-(1,2,4-oxadiazol-3-yl)benzamido)cyclobutane-1-carboxamido)-4-methylthiazole-5-carboxylate]	1590
CCCCc1sc(NC(=O)CCNC(=O)c2cccc(-c3noc(C)n3)c2)nc1C [Example 64, N-(3-((5-butyl-4-methylthiazol-2-yl)amino)-3-oxopropyl)-3-(5-methyl-1,2,4-oxadiazol-3-yl)benzamide]	348
CCOC(=O)c1sc(NC(=O)CCNC(=O)c2cc(C)cc(-c3noc(C)n3)c2)nc1C [Example 43, Ethyl 4-methyl-2-(3-(3-methyl-5-(5-methyl-1,2,4-oxadiazol-3-yl)benzamido)propanamido)thiazole-5-carboxylate]	44
Cc1nc(-c2ccc3ccnc(NCCC(=O)Nc4cc(C(C)(C)C)on4)c3c2)no1 [Example 77, N-(5-(tert-butyl)isoxazol-3-yl)-3-((7-(5-methyl-1,2,4-oxadiazol-3-yl)isoquinolin-1-yl)amino)propenamide]	556
CCOC(=O)c1cc(NC(=O)CCNc2nccc3ccc(-c4noc(C)n4)cc23)n[nH]1 [Example 135, Ethyl-3-(3-((7-(5-methyl-1,2,4-oxadiazol-3-yl)isoquinolin-1-yl)amino)propanamido)-1 H-pyrazole-5-carboxylate]	428
COC(=O)c1sc(NC(=O)C[C@@H](CC#N)NC(=O)c2cccc(-c3noc(C)n3)c2)nc1C [Example 198]	181
CCCCCc1cc(NC(=O)[C@@H]2C[C@H](Nc3nccc4ccc(-c5noc(C)n5)cc34)CN2C)nn1C [Example 238, (2S,4S)-1-methyl-4-((7-(5-methyl-1,2,4-oxadiazol-3-yl)isoquinolin-1-yl)amino)-N-(1-methyl-5-pentyl-1 H-pyrazol-3-yl)pyrrolidine-2-carboxamide]	6740
Cc1nc(-c2cc(Cl)cc(C(=O)NCCC(=O)Nc3nc(C)c(C(C)(C)C)s3)c2)no1 [Example 31, N-[3-[(5-tert-butyl-4-methyl-thiazol-2-yl)amino]-3-oxo-propyl]-3-chloro-5-(5-methyl-1,2,4-oxadiazol-3-yl)benzamide]	191
Cc1nc(-c2ccc3ccnc(NC[C@@H](O)C(=O)Nc4nc(C)c(C(C)(C)C)s4)c3c2)no1 [Example 190, (R)-N-(5-(tert-butyl)-4-methylthiazol-2-yl)-2-hydroxy-3-((7-(5-methyl-1,2,4-oxadiazol-3-yl)isoquinolin-1-yl)amino)propanamide]	726
CCCOC(=O)c1sc(C(=O)N2CC[C@H](NC(=O)c3cccc(-c4noc(C)n4)c3)C2)nc1C [Example 240, Propyl (S)-4-methyl-2-(3-(3-(5-methyl-1,2,4-oxadiazol-3-yl)benzamido)pyrrolidine-1-carbonyl)thiazole-5-carboxylate]	98
